Test results reported in BindingDB's records for PubMed 7996470 (University of Michigan, 1994).

Assays:
[1] = target: T1, Alpha-2C adrenergic receptor (Homo sapiens, UniProt P18825)
T1 sequence (P18825 whole entry): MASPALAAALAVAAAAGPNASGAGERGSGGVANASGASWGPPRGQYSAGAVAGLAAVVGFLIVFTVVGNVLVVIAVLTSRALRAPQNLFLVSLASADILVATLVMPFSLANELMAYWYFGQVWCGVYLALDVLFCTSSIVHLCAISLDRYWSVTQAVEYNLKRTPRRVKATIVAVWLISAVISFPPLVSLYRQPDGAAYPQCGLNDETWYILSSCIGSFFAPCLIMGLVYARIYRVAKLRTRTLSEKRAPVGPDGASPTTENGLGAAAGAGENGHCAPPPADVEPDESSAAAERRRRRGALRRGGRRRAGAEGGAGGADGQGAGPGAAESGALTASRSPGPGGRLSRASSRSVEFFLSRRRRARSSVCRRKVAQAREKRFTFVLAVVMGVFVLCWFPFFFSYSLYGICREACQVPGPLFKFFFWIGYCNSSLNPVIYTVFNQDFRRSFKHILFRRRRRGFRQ

[2] = target: T2, Alpha-2A adrenergic receptor (Homo sapiens, UniProt P08913)
T2 sequence (P08913 whole entry): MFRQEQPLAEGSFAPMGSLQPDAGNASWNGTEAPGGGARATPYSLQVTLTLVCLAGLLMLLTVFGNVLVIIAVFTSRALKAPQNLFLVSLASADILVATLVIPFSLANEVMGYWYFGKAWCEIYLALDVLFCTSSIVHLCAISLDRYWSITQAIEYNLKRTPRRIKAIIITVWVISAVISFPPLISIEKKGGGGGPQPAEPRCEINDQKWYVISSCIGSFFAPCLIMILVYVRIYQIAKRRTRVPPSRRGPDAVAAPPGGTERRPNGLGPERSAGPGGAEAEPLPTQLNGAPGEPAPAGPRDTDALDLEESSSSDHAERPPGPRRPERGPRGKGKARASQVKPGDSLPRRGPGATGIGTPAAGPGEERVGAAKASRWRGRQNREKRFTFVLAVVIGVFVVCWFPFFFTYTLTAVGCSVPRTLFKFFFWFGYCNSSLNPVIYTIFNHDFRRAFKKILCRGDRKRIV

Row | SMILES | Ki [1] | Ki [2]
1 | COc1cc(N)c(Cl)cc1C(=O)NC1CC2CCC(C1)N2C (centres undefined) [4-amino-5-chloro-2-methoxy-N-(8-methyl-8-azabicyclo[3.2.1]octan-3-yl)benzamide] | 150 nM | –
2 | O=C1NCN(c2ccccc2)C12CCN(CC1COc3ccccc3O1)CC2 (centres undefined) [8-(2,3-Dihydro-benzo[1,4]dioxin-2-ylmethyl)-1-phenyl-1,3,8-triaza-spiro[4.5]decan-4-one] | 1.04 nM | 54.3 nM
3 | CC1c2ccccc2CN1CC1=NCCN1 (centres undefined) [NSC_121850] | – | 5.68 nM
4 | COc1ccccc1N1CCN(CCC2C(=O)c3ccccc3C(C)(C)C2=O)CC1 (centres undefined) [NSC_122211] | 31.8 nM | –
5 | COc1cccc(OC)c1OCCNCC1Oc2ccccc2OC1c1ccccc1 (centres undefined) [NSC_185453] | 3.18 nM | 14.6 nM
6 | COC1(C2=NCCN2)COc2ccccc2O1 (centres undefined) [RX821002] | 1.78 nM | 0.62 nM
